Laboratory results taken from PubChem BioAssay (NCI).
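Interpolation was linear, between the two tested concentrations surrounding the appropriate level; five concentrations were tested over 48 hours in 96-well plates. GI50 = concentration required for 50% inhibition of growth. TGI marks complete inhibition of growth.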

What was measured:
Experiment in all cases: growth of human tumour cells (NCI), 48 h
CCRF-CEM leukemia = test system: CCRF-CEM leukemia
SW-620 colon = test system: SW-620 colon
SF-268 CNS = test system: SF-268 CNS
HS 578T breast = test system: HS 578T breast
EKVX NSCLC = test system: EKVX NSCLC
TK-10 renal = test system: TK-10 renal
RXF 393 renal = test system: RXF 393 renal
SK-MEL-5 melanoma = test system: SK-MEL-5 melanoma
ACHN renal = test system: ACHN renal
U251 CNS = test system: U251 CNS
KM12 colon = test system: KM12 colon
SNB-75 CNS = test system: SNB-75 CNS
SN12C renal = test system: SN12C renal
LOX IMVI melanoma = test system: LOX IMVI melanoma
SR leukemia = test system: SR leukemia
UO-31 renal = test system: UO-31 renal
HL-60(TB) leukemia = test system: HL-60(TB) leukemia
OVCAR-5 ovarian = test system: OVCAR-5 ovarian
SF-295 CNS = test system: SF-295 CNS
MOLT-4 leukemia = test system: MOLT-4 leukemia
SK-MEL-2 melanoma = test system: SK-MEL-2 melanoma
SF-539 CNS = test system: SF-539 CNS
T-47D breast = test system: T-47D breast
UACC-62 melanoma = test system: UACC-62 melanoma
HCT-15 colon = test system: HCT-15 colon
A549 NSCLC = test system: A549 NSCLC
HCC-2998 colon = test system: HCC-2998 colon
HOP-62 NSCLC = test system: HOP-62 NSCLC
OVCAR-4 ovarian = test system: OVCAR-4 ovarian
COLO 205 colon = test system: COLO 205 colon
RPMI-8226 leukemia = test system: RPMI-8226 leukemia
K-562 leukemia = test system: K-562 leukemia
M14 melanoma = test system: M14 melanoma
MCF7 breast = test system: MCF7 breast
NCI-H23 lung = test system: NCI-H23 lung
SK-MEL-28 melanoma = test system: SK-MEL-28 melanoma
OVCAR-3 ovarian = test system: OVCAR-3 ovarian
UACC-257 melanoma = test system: UACC-257 melanoma
OVCAR-8 ovarian = test system: OVCAR-8 ovarian
NCI-H522 lung = test system: NCI-H522 lung
NCI-H226 lung = test system: NCI-H226 lung
786-0 renal = test system: 786-0 renal
PC-3 prostate = test system: PC-3 prostate
HT29 colon = test system: HT29 colon
MALME-3M melanoma = test system: MALME-3M melanoma
CAKI-1 renal = test system: CAKI-1 renal
SK-OV-3 ovarian = test system: SK-OV-3 ovarian
SNB-19 CNS = test system: SNB-19 CNS
A498 renal = test system: A498 renal
HOP-92 NSCLC = test system: HOP-92 NSCLC
DU-145 prostate = test system: DU-145 prostate
BT-549 breast = test system: BT-549 breast
MDA-MB-435 = test system: MDA-MB-435
MDA-MB-231 breast = test system: MDA-MB-231 breast
HCT-116 colon = test system: HCT-116 colon
NCI-H460 lung = test system: NCI-H460 lung
NCI/ADR-RES ovarian = test system: NCI/ADR-RES ovarian
IGROV1 ovarian = test system: IGROV1 ovarian

## COc1cc2c3c(n(CCCN)c(=O)c2cc1OC)-c1ccc(N(C)C)cc1C3=O
CCRF-CEM leukemia
  GI50: 1.98 µM
  TGI: 5.16 µM
SW-620 colon
  GI50: 1.95 µM
  TGI: 3.76 µM
SF-268 CNS
  GI50: 16.1 µM
  TGI: 46.1 µM
HS 578T breast
  GI50: 27.9 µM
  TGI: 61.5 µM
EKVX NSCLC
  GI50: 16.7 µM
  TGI: 32 µM
TK-10 renal
  GI50: 18.5 µM
  TGI: 37.2 µM
RXF 393 renal
  GI50: 6.53 µM
  TGI: 14.8 µM
SK-MEL-5 melanoma
  GI50: 6.4 µM
  TGI: 13.7 µM
ACHN renal
  GI50: 17.4 µM
  TGI: 31.5 µM
U251 CNS
  GI50: 16.5 µM
  TGI: 31.1 µM
KM12 colon
  GI50: 2.34 µM
  TGI: 4.85 µM
SNB-75 CNS
  GI50: 22.5 µM
  TGI: 46 µM
SN12C renal
  GI50: 16.9 µM
  TGI: 32 µM
LOX IMVI melanoma
  GI50: 2.05 µM
  TGI: 4.45 µM
SR leukemia
  GI50: 18.7 µM
  TGI: 74.5 µM
UO-31 renal
  GI50: 16.9 µM
  TGI: 36.1 µM
HL-60(TB) leukemia
  GI50: 21.6 µM
  TGI: 47.7 µM
OVCAR-5 ovarian
  GI50: 17 µM
  TGI: 31.4 µM
SF-295 CNS
  GI50: 17.6 µM
  TGI: 37.9 µM
MOLT-4 leukemia
  GI50: 7.01 µM
  TGI: 19.5 µM
SK-MEL-2 melanoma
  GI50: 19.6 µM
  TGI: 38.1 µM
SF-539 CNS
  GI50: 1.92 µM
  TGI: 3.66 µM
T-47D breast
  GI50: 20 µM
  TGI: 41 µM
UACC-62 melanoma
  GI50: 21.6 µM
  TGI: 42.2 µM
HCT-15 colon
  GI50: 13.9 µM
  TGI: 27.1 µM
A549 NSCLC
  GI50: 18 µM
  TGI: 52 µM
HCC-2998 colon
  GI50: 3.29 µM
  TGI: 7.68 µM
HOP-62 NSCLC
  GI50: 16.8 µM
  TGI: 31.9 µM
OVCAR-4 ovarian
  GI50: 17.5 µM
  TGI: 33.8 µM
COLO 205 colon
  GI50: 17.4 µM
  TGI: 35.5 µM
RPMI-8226 leukemia
  GI50: 2 µM
  TGI: 4.68 µM
K-562 leukemia
  GI50: 4.09 µM
  TGI: 17.4 µM
M14 melanoma
  GI50: 16.4 µM
  TGI: 32.6 µM
MCF7 breast
  GI50: 14.8 µM
  TGI: 36.7 µM
NCI-H23 lung
  GI50: 16.6 µM
  TGI: 30.5 µM
SK-MEL-28 melanoma
  GI50: 12.3 µM
  TGI: 27.6 µM
OVCAR-3 ovarian
  GI50: 20.4 µM
  TGI: 42.2 µM
UACC-257 melanoma
  GI50: 23.5 µM
  TGI: 48.3 µM
OVCAR-8 ovarian
  GI50: 7.22 µM
  TGI: 33.7 µM
NCI-H522 lung
  GI50: 17.3 µM
  TGI: 38.1 µM
NCI-H226 lung
  GI50: 23.9 µM
  TGI: 49.5 µM
786-0 renal
  GI50: 5.29 µM
  TGI: 11.8 µM
PC-3 prostate
  GI50: 1.69 µM
  TGI: 3.14 µM
HT29 colon
  GI50: 1.54 µM
  TGI: 2.94 µM
MALME-3M melanoma
  GI50: 9.33 µM
  TGI: 29.9 µM
CAKI-1 renal
  GI50: 22.7 µM
  TGI: 47.5 µM
SK-OV-3 ovarian
  GI50: 21 µM
  TGI: 42.7 µM
SNB-19 CNS
  GI50: 16.9 µM
  TGI: 33.7 µM
A498 renal
  GI50: 21 µM
  TGI: 37.2 µM
HOP-92 NSCLC
  GI50: 6.8 µM
  TGI: 22.8 µM
DU-145 prostate
  GI50: 2.38 µM
  TGI: 6.6 µM
BT-549 breast
  GI50: 14.5 µM
  TGI: 28.8 µM
MDA-MB-435
  GI50: 22.6 µM
  TGI: 46.3 µM
MDA-MB-231 breast
  GI50: 11.9 µM
  TGI: 25.5 µM
HCT-116 colon
  GI50: 2.42 µM
  TGI: 6.07 µM
NCI-H460 lung
  GI50: 4.45 µM
  TGI: 26.1 µM
NCI/ADR-RES ovarian
  GI50: 13.9 µM
  TGI: 43.2 µM
IGROV1 ovarian
  GI50: 14.8 µM
  TGI: 47 µM
